Test results: patent US20090069565A1, “NEW INDOLE DERIVATIVES AS FACTOR XA INHIBITORS” (priority 2001, published 2009)
Where two headings read alike, the source gives them in different places.

Target: human factor Xa (Homo sapiens, UniProt P00742)
Test: Factor Xa assay (chromogenic, substrate S-2765);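 also: purified enzyme preincubated with inhibitor for 10 min before substrate addition, final reaction volume 100 µl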
Type: biochemical
[1] = inhibition constant for factor Xa, purified enzyme 0.5 nM, substrate S-2765 140 μM, 25° C., pH 7.8, Ki=IC50/{1+(substrate concentration/Km)}, read-out: Ki(FXa)

human factor Xa, sequence (P00742 235-488 limits assumed): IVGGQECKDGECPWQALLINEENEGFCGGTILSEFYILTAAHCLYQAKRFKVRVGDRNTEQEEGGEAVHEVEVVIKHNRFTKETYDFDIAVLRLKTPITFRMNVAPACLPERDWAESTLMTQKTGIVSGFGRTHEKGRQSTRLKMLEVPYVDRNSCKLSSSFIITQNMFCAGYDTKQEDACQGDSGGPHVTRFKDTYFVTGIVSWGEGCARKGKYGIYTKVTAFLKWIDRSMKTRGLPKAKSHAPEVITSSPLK
human factor Xa, sequence (P00742 41-179 partner limits assumed): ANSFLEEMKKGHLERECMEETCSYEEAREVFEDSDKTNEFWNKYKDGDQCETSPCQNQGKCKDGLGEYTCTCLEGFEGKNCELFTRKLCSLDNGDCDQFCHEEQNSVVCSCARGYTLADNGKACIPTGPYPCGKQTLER

Row | Compound | Ki [1] | Ki (read-out: Ki(FXa)) | other results
1 | CC(C)N1CCC(NC(=O)c2cc3ccccc3n2Cc2nnc(-c3ccc(Cl)s3)s2)CC1 [Example 120, 1-[5-(5-Chloro-thiophen-2-yl)-[1,3,4]thiadiazol-2-ylmethyl]-1H-indole-2-carboxylic acid (1-isopropyl-piperidin-4-yl)-amide] | 4 nM |  | 
2 | CC(C)N1CCC(NC(=O)c2cc3ccccc3n2Cc2cc(-c3ccc(Cl)s3)no2)CC1 [Example 121, 1-[3-(5-Chloro-thiophen-2-yl)-isoxazol-5-ylmethyl]-1H-indole-2-carboxylic acid (1-isopropyl-piperidin-4-yl)-amide] | 3 nM |  | 
3 | CC(C)N1CCC(NC(=O)c2c(Cl)c3ccccc3n2Cc2cc(-c3ccc(Cl)s3)on2)CC1 [Example 122, 3-Chloro-1-[5-(5-chloro-thiophen-2-yl)-isoxazol-3-ylmethyl]-1H-indole-2-carboxylic acid (1-isopropyl-piperidin-4-yl)-amide] | 2 nM |  | 
4 | CC(C)N1CCC(NC(=O)c2c(Br)c3ccccc3n2Cc2cc(-c3ccc(Cl)s3)on2)CC1 [Example 123, 3-Bromo-1-[5-(5-chloro-thiophen-2-yl)-isoxazol-3-ylmethyl]-1H-indole-2-carboxylic acid (1-isopropyl-piperidin-4-yl)-amide] | 2 nM |  | 
5 | CC(C)N1CCC(NC(=O)c2c(F)c3ccccc3n2Cc2cc(-c3ccc(Cl)s3)on2)CC1 [Example 159, 3-Fluoro-1-[5-(5-chloro-thiophen-2-yl)-isoxazol-3-ylmethyl]-1H-indole-2-carboxylic acid (1-isopropyl-piperidin-4-yl)-amide] | 2 nM |  | 
6 | CC(C)N1CCC(NC(=O)c2c(C#N)c3ccccc3n2Cc2cc(-c3ccc(Cl)s3)on2)CC1 [Example 160, 1-[5-(5-Chloro-thiophen-2-yl)-isoxazol-3-ylmethyl]-3-cyano-1H-indole-2-carboxylic acid (1-isopropyl-piperidin-4-yl)-amide] |  |  | Ki: 0.1 nM
7 | Cc1cccc2c(C#N)c(C(=O)NC3CCN(C(C)C)CC3)n(Cc3cc(-c4ccc(Cl)s4)on3)c12 [Example 161, 1-[5-(5-Chloro-thiophen-2-yl)-isoxazol-3-ylmethyl]-3-cyano-7-methyl-1H-indole-2-carboxylic acid (1-isopropyl-piperidin-4-yl)-amide] |  |  | Ki: 0.1 nM
8 | CC(C)N1CCC(NC(=O)c2cc3ccccc3n2Cc2cnc(-c3ccc(Cl)s3)s2)CC1 [Example 162] | 57 nM |  | 
9 | COc1cccc2c1cc(C(=O)NC1CCN(C(C)C)CC1)n2CCc1ccc(Cl)cc1 [Example 172, 1-[2-(4-Chloro-phenyl)-ethyl]-4-methoxy-1H-indole-2-carboxylic acid (1-isopropyl-piperidin-4-yl)-amide] |  | 41 nM | 
10 | CC(C)N1CCC(NC(=O)c2cc3c(Br)cccc3n2Cc2cc(-c3ccc(Cl)s3)on2)CC1 [Example 173, 4-Bromo-1-[5-(5-chloro-thiophen-2-yl)-isoxazol-3-ylmethyl]-1H-indole-2-carboxylic acid (1-isopropyl-piperidin-4-yl)-amide] |  | 15 nM | 
11 | Cc1cccc2c1cc(C(=O)NC1CCN(C(C)C)CC1)n2Cc1cc(-c2ccc(Cl)s2)on1 [Example 174, 1-[5-(5-Chloro-thiophen-2-yl)-isoxazol-3-ylmethyl]-4-methyl-1H-indole-2-carboxylic acid (1-isopropyl-piperidin-4-yl)-amide] | 3 nM |  | 
12 | CC(C)N1CCC(NC(=O)c2cc3cc(C#N)ccc3n2Cc2cc(-c3ccc(Cl)s3)on2)CC1 [Example 176, 1-[5-(5-Chloro-thiophen-2-yl)-isoxazol-3-ylmethyl]-5-cyano-1H-indole-2-carboxylic acid (1-isopropyl-piperidin-4-yl)-amide] | 2 nM |  | 
13 | CC(C)N1CCC(NC(=O)c2cc3c(C(F)(F)F)cccc3n2Cc2cc(-c3ccc(Cl)s3)on2)CC1 [Example 177, 1-[5-(5-Chloro-thiophen-2-yl)-isoxazol-3-ylmethyl]-4-trifluoromethyl-1H-indole-2-carboxylic acid (1-isopropyl-piperidin-4-yl)-amide] |  | 15 nM | 
14 | Cc1ccc(C)c2c1cc(C(=O)NC1CCN(C(C)C)CC1)n2Cc1cc(-c2ccc(Cl)s2)on1 [Example 178, 1-[5-(5-Chloro-thiophen-2-yl)-isoxazol-3-ylmethyl]-4,7-dimethyl-1H-indole-2-carboxylic acid (1-isopropyl-piperidin-4-yl)-amide] |  |  | Ki: 1.3 nM
15 | COc1ccc(OC)c2c1cc(C(=O)NC1CCN(C(C)C)CC1)n2Cc1cc(-c2ccc(Cl)s2)on1 [Example 179, 1-[5-(5-Chloro-thiophen-2-yl)-isoxazol-3-ylmethyl]-4,7-dimethoxy-1H-indole-2-carboxylic acid (1-isopropyl-piperidin-4-yl)-amide] |  | 5.5 nM | 
16 | CC(C)N1CCC(NC(=O)c2cc3c(Cl)ccc(Cl)c3n2Cc2cc(-c3ccc(Cl)s3)on2)CC1 [Example 180, 4,7-Dichloro-1-[5-(5-chloro-thiophen-2-yl)-isoxazol-3-ylmethyl]-1H-indole-2-carboxylic acid (1-isopropyl-piperidin-4-yl)-amide] |  | 24 nM | 
17 | CC(C)N1CCC(NC(=O)c2cc3cc(Cl)cc(Cl)c3n2Cc2cc(-c3ccc(Cl)s3)on2)CC1 [Example 181, 5,7-Dichloro-1-[5-(5-chloro-thiophen-2-yl)-isoxazol-3-ylmethyl]-1H-indole-2-carboxylic acid (1-isopropyl-piperidin-4-yl)-amide] |  | 14 nM | 

More lines, main results first:

Row | Ki [1] | Ki (read-out: Ki(FXa)) | Compound | other results
18 | 40 nM |  | CC(C)N1CCC(NC(=O)c2cc3ccccc3n2Cc2cc3ccc(Cl)cc3s2)CC1 [Example 119, 1-(6-Chloro-benzo[b]thiophen-2-ylmethyl)-1H-indole-2-carboxylic acid (1-isopropyl-piperidin-4-yl)-amide] | 
19 |  | 440 nM | CC(C)N1CCC(NC(=O)c2cc3ccccc3n2Cc2ccc(OC(F)(F)F)cc2)CC1 [Example 146, 1-(4-Trifluoromethoxy-benzyl)-1H-indole-2-carboxylic acid (1-isopropyl-piperidin-4-yl)-amide] | 
20 |  | 1930 nM | CC(C)N1CCC(NC(=O)c2cc3ccccc3n2Cc2ccccc2Cl)CC1 [Example 148, 1-(2-Chloro-benzyl)-1H-indole-2-carboxylic acid (1-isopropyl-piperidin-4-yl)-amide] | 
21 |  | 686 nM | CC(C)N1CCC(NC(=O)c2cc3ccccc3n2Cc2cc(Cl)cc(Cl)c2)CC1 [Example 157, 1-(3,5-Dichloro-benzyl)-1H-indole-2-carboxylic acid (1-isopropyl-piperidin-4-yl)-amide] | 
22 | 654 nM |  | CC(C)N1CCC(NC(=O)c2cc3ccccc3n2Cc2cccc(Cl)c2)CC1 [Example 163, 1-(3-Chloro-benzyl)-1H-indole-2-carboxylic acid (1-isopropyl-piperidin-4-yl)-amide] | 
23 |  | 765 nM | CC(C)N1CCC(NC(=O)c2cc3ccccc3n2Cc2cccc(C(N)=O)c2)CC1 [Example 165, 1-(3-Carbamoyl-benzyl)-1H-indole-2-carboxylic acid (1-isopropyl-piperidin-4-yl)-amide] | 
24 | 73 nM |  | CC(C)N1CCC(NC(=O)c2cc3ccccc3n2CCc2ccc(Cl)cc2)CC1 [Example 169, 1-[2-(4-Chloro-phenyl)-ethyl]-1H-indole-2-carboxylic acid (1-isopropyl-piperidin-4-yl)-amide] | 
25 | 470 nM |  | CC(C)N1CCC(NC(=O)c2cc3ccccc3n2CCc2ccc(Cl)cc2Cl)CC1 [Example 170, 1-[2-(2,4-Dichloro-phenyl)-ethyl]-1H-indole-2-carboxylic acid (1-isopropyl-piperidin-4-yl)-amide] | 
